From a compilation of properties of binary mixtures (doi:10.1016/j.molliq.2019.03.034)

Assay: xn = mol fraction of the nth substance listed
Settings: 100 kPa

C[N+](C)(C)Cc1ccccc1.[Cl-] + O
viscosity (298.15 K, x1 = 0.0001): 0.895 mPa·s
viscosity (298.15 K, x1 = 0.0003): 0.897 mPa·s
viscosity (298.15 K, x1 = 0.0005): 0.901 mPa·s
viscosity (303.15 K, x1 = 0.0001): 0.806 mPa·s
viscosity (303.15 K, x1 = 0.0003): 0.808 mPa·s
viscosity (308.15 K, x1 = 0.0001): 0.723 mPa·s
viscosity (308.15 K, x1 = 0.0003): 0.726 mPa·s
viscosity (308.15 K, x1 = 0.0005): 0.73 mPa·s
viscosity (313.15 K, x1 = 0.0001): 0.627 mPa·s
viscosity (313.15 K, x1 = 0.0003): 0.623 mPa·s
viscosity (313.15 K, x1 = 0.0005): 0.638 mPa·s
viscosity (318.15 K, x1 = 0.0001): 0.541 mPa·s
viscosity (318.15 K, x1 = 0.0003): 0.537 mPa·s
viscosity (318.15 K, x1 = 0.0005): 0.552 mPa·s
